Publication PMC8658794, “Design, Synthesis, and Biological Evaluation of HDAC Degraders with CRBN E3 Ligase Ligands” (Molecules, 2021)
Like-named read-outs stand apart in the source and are kept apart here.

Assays:
HDAC6 [1] = target: T1, HDAC6 (Homo sapiens, UniProt Q9UBN7); test: In vitro HDAC inhibition assay (fluorogenic substrate), HDAC6; format: biochemical; design: All three full-length rhHDACs were expressed in insect High5 cells using a baculoviral expression system; His6; GST; made in house; host or cells: insect High5 cells (baculovirus); details: recombinant human HDAC6; mean ± SD of three independent determinations
T1 sequence (Q9UBN7 1-1215): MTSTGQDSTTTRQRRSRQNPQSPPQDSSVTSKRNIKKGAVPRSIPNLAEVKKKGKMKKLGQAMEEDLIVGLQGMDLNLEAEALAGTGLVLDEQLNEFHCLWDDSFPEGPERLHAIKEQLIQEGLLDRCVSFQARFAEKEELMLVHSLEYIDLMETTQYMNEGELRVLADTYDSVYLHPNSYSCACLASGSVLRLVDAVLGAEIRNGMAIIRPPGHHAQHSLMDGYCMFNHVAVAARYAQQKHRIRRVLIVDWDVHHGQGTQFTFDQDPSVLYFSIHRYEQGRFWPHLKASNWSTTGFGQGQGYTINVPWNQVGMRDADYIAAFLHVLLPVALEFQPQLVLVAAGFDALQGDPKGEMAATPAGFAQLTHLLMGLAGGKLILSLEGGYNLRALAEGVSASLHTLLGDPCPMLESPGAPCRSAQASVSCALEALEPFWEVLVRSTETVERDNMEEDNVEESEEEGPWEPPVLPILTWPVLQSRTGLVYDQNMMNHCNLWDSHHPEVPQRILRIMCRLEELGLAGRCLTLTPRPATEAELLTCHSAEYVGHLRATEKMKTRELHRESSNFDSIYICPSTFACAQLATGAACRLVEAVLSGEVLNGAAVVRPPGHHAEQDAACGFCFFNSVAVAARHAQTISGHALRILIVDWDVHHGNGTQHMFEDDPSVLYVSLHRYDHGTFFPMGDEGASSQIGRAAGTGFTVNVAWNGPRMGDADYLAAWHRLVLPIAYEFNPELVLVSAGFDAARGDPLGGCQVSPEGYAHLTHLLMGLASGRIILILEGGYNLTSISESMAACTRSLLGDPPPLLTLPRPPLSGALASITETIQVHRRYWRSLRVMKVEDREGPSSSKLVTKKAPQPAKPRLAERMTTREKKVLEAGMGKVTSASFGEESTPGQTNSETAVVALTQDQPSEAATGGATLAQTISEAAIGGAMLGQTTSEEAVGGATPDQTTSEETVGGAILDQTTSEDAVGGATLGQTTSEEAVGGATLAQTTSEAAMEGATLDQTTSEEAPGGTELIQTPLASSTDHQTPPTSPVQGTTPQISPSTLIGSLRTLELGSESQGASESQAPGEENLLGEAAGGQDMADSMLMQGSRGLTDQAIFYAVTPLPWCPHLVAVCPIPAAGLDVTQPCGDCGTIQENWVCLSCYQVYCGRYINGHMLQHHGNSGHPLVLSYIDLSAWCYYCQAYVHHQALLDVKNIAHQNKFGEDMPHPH
Protocol: (§1) All three full-length rhHDACs were expressed in insect High5 cells using a baculoviral expression system, and all the His6-tagged and GST-fusion proteins were purified using Ni-NTA (QIAGEN). […] In brief, the HDAC assay mixture contained an HDAC substrate (5–50 μM, 5 μl), rhHDAC isoforms (20–200 nM) and an inhibitor (1 μl). The positive controls contained all the above components except the inhibitor. The negative controls contained neither an enzyme nor an inhibitor. The HDAC6 assay components were incubated at room temperature for 3 h, and HDAC 1 and 3 were incubated for 24 h. […] The plates were incubated for 30 min at room temperature to allow the fluorescence signal to develop.

HDAC1 [2] = target: T2, HDAC1 (Homo sapiens, UniProt Q13547); test: In vitro HDAC inhibition assay (fluorogenic substrate), HDAC1; format: biochemical; design: All three full-length rhHDACs were expressed in insect High5 cells using a baculoviral expression system; His6; GST; made in house; host or cells: insect High5 cells (baculovirus); details: recombinant human HDAC1; mean ± SD of three independent determinations
Protocol: as §1

HDAC3 [3] = target: T3, HDAC3 (Homo sapiens, UniProt O15379); test: In vitro HDAC inhibition assay (fluorogenic substrate), HDAC3; format: biochemical; design: All three full-length rhHDACs were expressed in insect High5 cells using a baculoviral expression system; His6; GST; made in house; host or cells: insect High5 cells (baculovirus); details: recombinant human HDAC3; mean ± SD of three independent determinations
Protocol: as §1
Target sequence in this assay (O15379 whole entry): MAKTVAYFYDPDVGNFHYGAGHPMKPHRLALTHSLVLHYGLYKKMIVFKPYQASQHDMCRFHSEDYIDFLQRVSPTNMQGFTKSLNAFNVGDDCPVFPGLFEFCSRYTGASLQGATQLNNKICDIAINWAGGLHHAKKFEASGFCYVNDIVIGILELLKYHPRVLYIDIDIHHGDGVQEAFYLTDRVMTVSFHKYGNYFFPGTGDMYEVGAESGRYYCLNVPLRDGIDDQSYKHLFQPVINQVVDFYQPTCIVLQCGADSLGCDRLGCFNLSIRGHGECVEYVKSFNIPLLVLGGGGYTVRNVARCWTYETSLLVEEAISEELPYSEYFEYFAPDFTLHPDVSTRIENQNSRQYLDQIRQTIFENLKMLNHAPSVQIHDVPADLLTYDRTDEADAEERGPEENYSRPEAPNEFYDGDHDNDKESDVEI
Target sequence in this assay (Q9Y618 395-489 partner limits assumed): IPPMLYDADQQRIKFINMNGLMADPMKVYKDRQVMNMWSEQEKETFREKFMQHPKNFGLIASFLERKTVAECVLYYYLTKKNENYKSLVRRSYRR

MM.1S cell line = test: In vitro anti-proliferative activity, MTS assay; format: cell-based; details: for IC50: Homo sapiens, MM1.S
Protocol: The cells were seeded in 96 well plates at a proper density in growth media. After 24 h, a range of concentrations of the test compounds was added and the plates were incubated at 37 °C for 72 h. The cell proliferation was determined by the MTS assay. After 3 h, the absorbance was collected using SpectraMAX 340. The IC50 values were calculated by fitting a concentration–response curve using a SoftMax pro-based four-parameter method.

tubulin acetylation = test: Tubulin acetylation in MM.1S cells; format: cell-based
HDAC6 [4] = target: T1, HDAC6; test: Western blot of HDAC6 protein level (degradation) in MM.1S cells; format: cell-based; design: endogenous in cells; host or cells: MM.1S; details: 3 h; for degradation of HDAC6 (immunoblot): different concentrations
Protocol: (§2) The 2 × 10^6 MM.1S cells (multiple myeloma) were cultured in a cell culture plate and incubated for 1 h. Next, the MM.1S cells were treated with compounds at different concentrations for 3 h. Subsequently, the cells were collected, washed, lysed in a Ripa buffer containing a sample reducing agent, and analyzed using SDS/PAGE. Finally, the gel was blotted and the total HDAC levels were detected through standard Western blot.

HDAC3 [5] = target: T3, HDAC3; test: Western blot of HDAC3 protein level (degradation) in MM.1S cells; format: cell-based; design: endogenous in cells; host or cells: MM.1S; details: 3 h, different concentrations
Protocol: as §2
Target sequence in this assay (O15379 whole entry): as the sequence (O15379 whole entry) above

HDAC1 [6] = target: T2, HDAC1; test: Western blot of HDAC1 protein level (degradation) in MM.1S cells; format: cell-based; design: endogenous in cells; host or cells: MM.1S; details: 3 h, different concentrations
Protocol: as §2

[7] = MM.1S, 72 h, MTS, mean ± SD of three independent determinations, read-out: IC50 (μM ± SD) anti-proliferative activity against MM.1S cell line

T2 sequence (Q13547 whole entry): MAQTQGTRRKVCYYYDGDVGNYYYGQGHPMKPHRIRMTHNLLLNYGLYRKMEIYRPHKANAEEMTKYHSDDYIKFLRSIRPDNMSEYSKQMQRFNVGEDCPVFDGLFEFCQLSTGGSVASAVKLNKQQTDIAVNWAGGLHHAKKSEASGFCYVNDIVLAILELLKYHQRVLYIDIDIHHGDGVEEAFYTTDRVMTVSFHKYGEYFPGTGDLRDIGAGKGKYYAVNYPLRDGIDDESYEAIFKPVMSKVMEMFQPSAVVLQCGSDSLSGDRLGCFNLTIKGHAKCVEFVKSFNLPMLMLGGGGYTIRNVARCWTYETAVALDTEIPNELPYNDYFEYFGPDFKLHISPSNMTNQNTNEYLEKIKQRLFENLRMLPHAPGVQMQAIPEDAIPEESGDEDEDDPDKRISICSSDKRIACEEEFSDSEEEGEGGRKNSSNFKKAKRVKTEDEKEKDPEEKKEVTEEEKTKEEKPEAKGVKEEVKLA

SMILES | IC50 (HDAC6 [1]) [µM] | IC50 (HDAC1 [2]) [µM] | IC50 (HDAC3 [3]) [µM] | IC50 (MM.1S cell line; [7]) [µM] | IC50 (MM.1S cell line; MM.1S cells, printed beside the HDAC6 immunoblot, read-out: IC50 printed in the picture of Figure 4B) [µM] | anti-proliferative potency relative to SAHA (MM.1S cell line; MM.1S cell line) | increase in tubulin acetylation (tubulin acetylation) | HDAC6 degradation compared with HDAC1 and HDAC3 (immunoblot) (HDAC6 [4]; 0.12 μM) | degradation of HDAC6 (immunoblot) (HDAC6 [4]) | degradation of HDAC3 (immunoblot) (HDAC3 [5]) | degradation of HDAC1 (immunoblot) (HDAC1 [6])
O=C(CCCCCC(=O)Nc1cccc2c1CN(C1CCC(=O)NC1=O)C2=O)NO (stereo not drawn) [9a, N^1-(2-(2,6-Dioxopiperidin-3-yl)-1-oxoisoindolin-4-yl)-N^7-hydroxyheptanediamide] | 1.98 ± 0.69 | 2.31 ± 0.46 | 2.2 ± 0.29 |  |  |  |  |  |  |  | 
O=C(CCCCCCC(=O)Nc1cccc2c1CN(C1CCC(=O)NC1=O)C2=O)NO (stereo not drawn) [9b, N^1-(2-(2,6-Dioxopiperidin-3-yl)-1-oxoisoindolin-4-yl)-N^8-hydroxyoctanediamide] | 1.46 ± 1.02 | 0.38 ± 0.14 | 0.47 ± 0.01 | > 10 |  |  |  |  |  |  | 
O=C(CCCCCCCC(=O)Nc1cccc2c1CN(C1CCC(=O)NC1=O)C2=O)NO (stereo not drawn) [9c, N^1-(2-(2,6-Dioxopiperidin-3-yl)-1-oxoisoindolin-4-yl)-N^9-hydroxynonanediamide] | 3.67 ± 1.02 | 1.13 ± 0.03 | 1.06 ± 0.2 |  |  |  |  |  |  |  | 
O=C(CCCCCCCCC(=O)Nc1cccc2c1CN(C1CCC(=O)NC1=O)C2=O)NO (stereo not drawn) [9d, N^1-(2-(2,6-Dioxopiperidin-3-yl)-1-oxoisoindolin-4-yl)-N^10-hydroxydecanediamide] | 2.94 ± 0.62 | 0.72 ± 0.18 | 0.75 ± 0.06 |  |  |  |  |  |  |  | 
O=C(CCCCCCC(=O)Nc1cccc2c1C(=O)N(C1CCC(=O)NC1=O)C2=O)NO (stereo not drawn) [9e, N^1-(2-(2,6-Dioxopiperidin-3-yl)-1,3-dioxoisoindolin-4-yl)-N^8-hydroxyoctanediamide] | 0.42 ± 0.18 | 2.7 ± 0.36 | 0.33 ± 0.01 | > 10 |  |  |  |  |  |  | 
O=C(CCCCCNC(=O)Nc1cccc2c1CN(C1CCC(=O)NC1=O)C2=O)NO (stereo not drawn) [15a, 6-(3-(2-(2,6-Dioxopiperidin-3-yl)-1-oxoisoindolin-4-yl)ureido)-N-hydroxyhexanamide] | 5.96 ± 1.43 |  | 0.27 ± 0.04 | > 10 |  |  |  |  |  |  | 
O=C(CCCCCCNC(=O)Nc1cccc2c1CN(C1CCC(=O)NC1=O)C2=O)NO (stereo not drawn) [15b, 7-(3-(2-(2,6-Dioxopiperidin-3-yl)-1-oxoisoindolin-4-yl)ureido)-N-hydroxyheptanamide] | 1.67 ± 0.41 | 0.57 ± 0.04 | 0.58 ± 0.04 |  |  |  |  |  |  |  | 
O=C(CCCCCCCCNC(=O)Nc1cccc2c1CN(C1CCC(=O)NC1=O)C2=O)NO (stereo not drawn) [15c, 9-(3-(2-(2,6-Dioxopiperidin-3-yl)-1-oxoisoindolin-4-yl)ureido)-N-hydroxynonanamide] | 3.09 ± 0.54 | 0.82 ± 0.06 | 0.96 ± 0.13 |  |  |  |  |  |  |  | 
O=C(CCCCCNC(=O)Nc1cccc2c1C(=O)N(C1CCC(=O)NC1=O)C2=O)NO (stereo not drawn) [15d, 6-(3-(2-(2,6-Dioxopiperidin-3-yl)-1,3-dioxoisoindolin-4-yl)ureido)-N-hydroxyhexanamide] | 5.28 ± 1.42 | 0.44 ± 0.1 | 0.22 ± 0.02 | > 10 |  |  |  |  |  |  | 
Nc1ccccc1NC(=O)c1ccc(COc2cccc3c2CN(C2CCC(=O)NC2=O)C3=O)cc1 (stereo not drawn) [21a, N-(2-Aminophenyl)-4-(((2-(2,6-dioxopiperidin-3-yl)-1-oxoisoindolin-4-yl)oxy)methyl)benzamide] | > 20 | 1.6 ± 0.54 | 0.56 ± 0.02 | 0.043 ± 0.02 | 0.04 | approximately five times more potent | not observed | superior HDAC6 degradation efficacies | dose-dependent manner |  | 
Nc1ccccc1NC(=O)c1ccc(COc2cccc3c2C(=O)N(C2CCC(=O)NC2=O)C3=O)cc1 (stereo not drawn) [21b, N-(2-Aminophenyl)-4-(((2-(2,6-dioxopiperidin-3-yl)-1,3-dioxoisoindolin-4-yl)oxy)methyl)benzamide] | > 20 | 1.2 ± 0.44 | 0.28 ± 0.04 | 0.541 ± 0.108 |  |  |  |  | almost no degradation | almost no degradation | almost no degradation
O=C1CCC(N2Cc3c(OCc4ccc(C(=O)NO)cc4)cccc3C2=O)C(=O)N1 (stereo not drawn) [23a, 4-(((2-(2,6-Dioxopiperidin-3-yl)-1-oxoisoindolin-4-yl)oxy)methyl)-N-hydroxybenzamide] | 0.38 ± 0.1 | 8.32 ± 2.1 | 0.65 ± 0.03 | > 10 |  |  |  |  |  |  | 
O=C1CCC(N2C(=O)c3cccc(OCc4ccc(C(=O)NO)cc4)c3C2=O)C(=O)N1 (stereo not drawn) [23b, 4-(((2-(2,6-Dioxopiperidin-3-yl)-1,3-dioxoisoindolin-4-yl)oxy)methyl)-N-hydroxybenzamide] | > 20 | 2.23 ± 0.3 | 0.76 ± 0.1 | 1.34 ± 0.4 |  |  |  |  | almost no degradation | almost no degradation | almost no degradation
